Data as given in ChEMBL document CHEMBL3868610, “Novel bicyclo[3.1.0]hexane analogs as antagonists of metabotropic glutamate 2/3 receptors for the treatment of depression” (Bioorg Med Chem Lett, 2016).
The source made the active and inactive calls. The calls are words filed in the database; no cut-off is given here.

Tests used:
[1] = Antidepressant activity in ip dosed NIH Swiss Webster mouse assessed as reduction in immobility time administered 30 mins prior to evaluation measured on the last 4 mins of the 6 mins observation time by forced swim test realtive to control; type: functional, organism-based
[2] = molecular target: T1, Metabotropic glutamate receptor 3 (Homo sapiens, UniProt Q14832); assay: Antagonist activity at recombinant human mGlu3 receptor expressed in hamster AV12 cells assessed as inhibition of DCG-4-inhibited forskolin-stimulated cAMP formation up to 25 uM after 20 mins by HTRF assay relative to control; type: functional, cell-based
Target sequence in this assay (Q14832 23-879 limits assumed): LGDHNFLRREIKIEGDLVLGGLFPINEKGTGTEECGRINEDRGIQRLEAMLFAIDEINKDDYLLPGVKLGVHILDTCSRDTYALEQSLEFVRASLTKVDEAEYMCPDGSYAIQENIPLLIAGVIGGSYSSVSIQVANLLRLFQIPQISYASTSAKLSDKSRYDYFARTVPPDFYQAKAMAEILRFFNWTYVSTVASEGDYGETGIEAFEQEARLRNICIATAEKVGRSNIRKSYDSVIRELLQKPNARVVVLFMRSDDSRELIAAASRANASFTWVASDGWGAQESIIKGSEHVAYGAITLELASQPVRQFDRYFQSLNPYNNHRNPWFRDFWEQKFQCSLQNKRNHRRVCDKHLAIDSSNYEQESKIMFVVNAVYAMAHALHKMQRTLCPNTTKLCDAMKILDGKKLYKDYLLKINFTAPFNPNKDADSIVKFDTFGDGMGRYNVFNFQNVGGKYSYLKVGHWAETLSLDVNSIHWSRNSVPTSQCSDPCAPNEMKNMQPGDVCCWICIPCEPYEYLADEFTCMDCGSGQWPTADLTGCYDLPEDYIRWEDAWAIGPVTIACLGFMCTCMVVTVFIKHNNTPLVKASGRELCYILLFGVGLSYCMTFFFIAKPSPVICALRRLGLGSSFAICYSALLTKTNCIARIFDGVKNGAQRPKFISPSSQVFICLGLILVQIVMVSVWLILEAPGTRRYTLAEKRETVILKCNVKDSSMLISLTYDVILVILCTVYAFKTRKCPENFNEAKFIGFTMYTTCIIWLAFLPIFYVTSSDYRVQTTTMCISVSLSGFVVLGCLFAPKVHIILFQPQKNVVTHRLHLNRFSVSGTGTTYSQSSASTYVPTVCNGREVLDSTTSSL

[3] = Antidepressant activity in ip dosed NIH Swiss Webster mouse assessed as reduction in immobility time administered 30 mins prior to evaluation measured on the last 4 mins of the 6 mins observation time by forced swim test; type: functional, organism-based
[4] = molecular target: T1, Metabotropic glutamate receptor 3; assay: Antagonist activity at recombinant human mGlu3 receptor expressed in hamster AV12 cells co-expressing human EAAT1 assessed as reduction of DCG-4-inhibited forskolin-stimulated cAMP formation after 20 mins by HTRF assay; type: functional, cell-based
[5] = molecular target: T2, Metabotropic glutamate receptor 2 (Homo sapiens, UniProt Q14416); assay: Antagonist activity at recombinant human mGlu2 receptor expressed in hamster AV12 cells co-expressing human EAAT1 assessed as reduction of DCG-4-inhibited forskolin-stimulated cAMP formation after 20 mins by HTRF assay; type: functional, cell-based
[6] = molecular target: T2, Metabotropic glutamate receptor 2; assay: Antagonist activity at recombinant human mGlu2 receptor expressed in hamster AV12 cells assessed as inhibition of DCG-4-inhibited forskolin-stimulated cAMP formation up to 25 uM after 20 min by HTRF assay relative to control; type: functional, cell-based
Target sequence in this assay (Q14416 19-872 limits assumed): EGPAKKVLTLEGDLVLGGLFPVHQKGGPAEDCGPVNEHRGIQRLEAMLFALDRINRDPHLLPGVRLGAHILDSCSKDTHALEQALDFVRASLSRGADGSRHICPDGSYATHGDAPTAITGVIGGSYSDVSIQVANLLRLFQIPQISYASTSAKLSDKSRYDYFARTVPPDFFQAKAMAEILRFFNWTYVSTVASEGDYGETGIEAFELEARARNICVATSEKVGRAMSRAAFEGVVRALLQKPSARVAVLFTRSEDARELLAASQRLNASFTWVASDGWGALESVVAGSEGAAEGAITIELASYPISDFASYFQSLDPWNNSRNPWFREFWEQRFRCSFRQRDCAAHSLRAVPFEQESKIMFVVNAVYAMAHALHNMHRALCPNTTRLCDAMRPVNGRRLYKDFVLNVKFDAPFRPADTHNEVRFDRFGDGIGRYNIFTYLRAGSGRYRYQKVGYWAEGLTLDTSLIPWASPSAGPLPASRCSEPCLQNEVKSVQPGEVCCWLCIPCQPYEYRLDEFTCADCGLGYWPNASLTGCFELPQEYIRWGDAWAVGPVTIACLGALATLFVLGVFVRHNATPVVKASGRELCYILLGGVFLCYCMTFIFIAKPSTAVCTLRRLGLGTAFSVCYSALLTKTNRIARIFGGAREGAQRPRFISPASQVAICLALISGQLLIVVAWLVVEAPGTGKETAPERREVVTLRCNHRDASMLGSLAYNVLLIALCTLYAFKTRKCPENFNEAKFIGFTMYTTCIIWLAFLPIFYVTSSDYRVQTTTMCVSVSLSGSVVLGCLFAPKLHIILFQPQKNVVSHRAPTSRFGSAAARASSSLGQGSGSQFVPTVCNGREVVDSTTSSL

[7] = molecular target: T2, Metabotropic glutamate receptor 2; assay: Displacement of [3H]-LY459477 from human mGlu2 receptor expressed in hamster AV12 cell membranes co-expressing human EAAT1 after 90 mins by liquid scintillation counting method
Target sequence in this assay (Q14416 whole entry): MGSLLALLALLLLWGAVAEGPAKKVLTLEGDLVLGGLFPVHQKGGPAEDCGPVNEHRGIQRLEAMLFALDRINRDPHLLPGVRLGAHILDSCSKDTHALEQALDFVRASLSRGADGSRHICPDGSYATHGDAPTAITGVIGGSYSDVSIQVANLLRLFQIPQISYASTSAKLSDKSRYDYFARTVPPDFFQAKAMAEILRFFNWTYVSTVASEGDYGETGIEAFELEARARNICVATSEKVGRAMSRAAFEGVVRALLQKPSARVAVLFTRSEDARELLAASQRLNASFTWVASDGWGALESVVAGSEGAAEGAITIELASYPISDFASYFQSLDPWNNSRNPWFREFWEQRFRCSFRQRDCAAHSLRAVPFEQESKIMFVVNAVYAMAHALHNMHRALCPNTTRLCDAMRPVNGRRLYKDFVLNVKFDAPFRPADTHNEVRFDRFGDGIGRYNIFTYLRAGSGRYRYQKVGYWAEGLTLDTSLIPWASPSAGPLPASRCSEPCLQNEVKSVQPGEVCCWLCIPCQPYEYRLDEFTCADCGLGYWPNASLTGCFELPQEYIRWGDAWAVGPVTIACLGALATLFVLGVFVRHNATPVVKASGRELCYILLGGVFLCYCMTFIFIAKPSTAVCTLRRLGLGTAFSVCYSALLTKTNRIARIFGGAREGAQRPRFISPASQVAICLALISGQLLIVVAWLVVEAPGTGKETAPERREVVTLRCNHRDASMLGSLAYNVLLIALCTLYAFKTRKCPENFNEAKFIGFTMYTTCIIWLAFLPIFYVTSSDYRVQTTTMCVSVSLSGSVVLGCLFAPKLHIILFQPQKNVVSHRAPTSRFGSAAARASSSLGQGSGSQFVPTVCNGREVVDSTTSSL

[8] = molecular target: T1, Metabotropic glutamate receptor 3; assay: Displacement of [3H]-LY459477 from human mGlu3 receptor expressed in hamster AV12 cell membranes co-expressing human EAAT1 after 90 mins by liquid scintillation counting method
Target sequence in this assay (Q14832 whole entry): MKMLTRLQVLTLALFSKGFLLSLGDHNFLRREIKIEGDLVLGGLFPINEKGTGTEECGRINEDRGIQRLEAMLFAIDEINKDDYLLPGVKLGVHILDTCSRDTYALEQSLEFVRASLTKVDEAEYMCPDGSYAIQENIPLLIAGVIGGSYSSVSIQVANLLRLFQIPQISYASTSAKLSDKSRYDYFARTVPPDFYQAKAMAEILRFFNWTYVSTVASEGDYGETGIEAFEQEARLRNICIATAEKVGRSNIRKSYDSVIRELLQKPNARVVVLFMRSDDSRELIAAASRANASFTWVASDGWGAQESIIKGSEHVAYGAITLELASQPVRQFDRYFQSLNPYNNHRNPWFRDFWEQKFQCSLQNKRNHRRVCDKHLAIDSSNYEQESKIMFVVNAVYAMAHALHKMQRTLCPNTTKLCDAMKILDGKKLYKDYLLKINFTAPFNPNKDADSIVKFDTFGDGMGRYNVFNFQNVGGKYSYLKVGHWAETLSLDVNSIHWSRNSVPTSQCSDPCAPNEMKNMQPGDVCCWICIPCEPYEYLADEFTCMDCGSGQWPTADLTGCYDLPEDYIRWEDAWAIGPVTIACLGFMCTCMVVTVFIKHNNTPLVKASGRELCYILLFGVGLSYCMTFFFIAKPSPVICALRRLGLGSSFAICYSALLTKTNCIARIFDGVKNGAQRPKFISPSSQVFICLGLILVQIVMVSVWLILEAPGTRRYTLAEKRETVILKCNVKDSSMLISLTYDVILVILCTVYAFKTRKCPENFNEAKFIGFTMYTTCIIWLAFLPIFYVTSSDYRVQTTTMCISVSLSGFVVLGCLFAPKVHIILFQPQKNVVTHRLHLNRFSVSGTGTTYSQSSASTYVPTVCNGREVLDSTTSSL

Row | SMILES | Emax [1] | inhibition [2] | ED60 [3] | MED [3] | IC50 [4] | Imax [4] | IC50 [5] | Imax [5] | inhibition [6] | Ki [7] | Ki [8]
1 | COC(=O)N[C@H]1[C@H]2[C@H](C(=O)O)[C@H]2[C@](N)(C(=O)O)[C@@H]1OCc1ccc(Cl)c(Cl)c1 | 46% | Active | 7.95 mg/kg | 10 mg/kg | 20.5 nM | > 94% | 18.8 nM | > 94% | Active |  | 
2 | N[C@]1(C(=O)O)[C@@H]2[C@@H](C(=O)O)[C@@H]2[C@H](Sc2nc[nH]n2)[C@H]1OCc1ccc(Cl)c(Cl)c1 | 62% | Active | 2.08 mg/kg | 3 mg/kg | 23.5 nM | > 94% | 12.7 nM | > 94% | Active | 7.43 nM | 2.7 nM
3 | Cn1ncnc1S[C@H]1[C@H]2[C@H](C(=O)O)[C@H]2[C@](N)(C(=O)O)[C@@H]1OCc1ccc(Cl)c(Cl)c1 | 47% | Active | 7.3 mg/kg | 10 mg/kg | 29.6 nM | > 94% | 19.9 nM | > 94% | Active |  | 
4 | N[C@]1(C(=O)O)[C@@H]2[C@@H](C(=O)O)[C@@H]2[C@@H](O)[C@H]1OCc1cc(Cl)ccc1Cl |  | Active |  |  | 185 nM | > 94% |  |  |  |  | 
5 | N[C@]1(C(=O)O)[C@@H]2[C@@H](C(=O)O)[C@@H]2[C@@H](O)[C@H]1OCc1ccc(Cl)cc1 |  | Active |  |  | 145 nM | > 94% | 210 nM | > 94% | Active |  | 
6 | N[C@]1(C(=O)O)[C@@H]2[C@@H](C(=O)O)[C@@H]2[C@H](Sc2ncc[nH]2)[C@H]1OCc1ccc(Cl)c(Cl)c1 | 41% | Active | 9.1 mg/kg | 10 mg/kg | 38.5 nM | > 94% |  |  |  |  | 
7 | CC(=O)N[C@H]1[C@H]2[C@H](C(=O)O)[C@H]2[C@](N)(C(=O)O)[C@@H]1OCc1ccc(Cl)c(Cl)c1 | 41% | Active | 9.1 mg/kg | 30 mg/kg | 14.3 nM | > 94% | 26.1 nM | > 94% | Active |  | 
8 | N[C@@]1(C(=O)O)C[C@H](O)[C@H]2[C@H](C(=O)O)[C@H]21 |  |  |  |  |  |  |  |  |  | 230 nM | 
9 | N[C@]1(C(=O)O)[C@@H]2[C@@H](C(=O)O)[C@@H]2[C@@H](O)[C@H]1OCc1cccc(Cl)c1 |  | Active |  |  | 178 nM | > 94% | 280 nM | > 94% | Active |  | 
10 | N[C@]1(C(=O)O)[C@@H]2[C@@H](C(=O)O)[C@@H]2[C@@H](O)[C@H]1OCc1ccccc1 |  | Active |  |  | 239 nM | > 94% |  |  |  |  | 
11 | Cc1cc(CO[C@@H]2[C@H](O)[C@H]3[C@H](C(=O)O)[C@H]3[C@]2(N)C(=O)O)ccc1F |  | Active |  |  | 85 nM | > 94% |  |  |  |  | 
12 | N[C@]1(C(=O)O)[C@@H]2[C@@H](C(=O)O)[C@@H]2[C@@H](O)[C@H]1OCc1ccc(Cl)c(Cl)c1 |  | Active |  |  | 153 nM | > 94% | 169 nM | > 94% | Active | 76 nM | 
13 | N[C@@]1(C(=O)O)C[C@@H](O)[C@H]2[C@H](C(=O)O)[C@H]21 |  |  |  |  |  |  |  |  |  | 166 nM | 
14 | N[C@]1(C(=O)O)[C@@H]2[C@@H](C(=O)O)[C@@H]2[C@@H](O)[C@H]1OCc1ccc(Cl)c(F)c1 |  | Active |  |  | 127 nM | > 94% |  |  |  |  | 
15 | N[C@]1(C(=O)O)[C@@H]2[C@@H](C(=O)O)[C@@H]2[C@H](F)[C@H]1OCc1ccc(Cl)c(Cl)c1 |  | Active |  |  | 71 nM | > 94% |  |  |  |  | 
16 | [N-]=[N+]=N[C@H]1[C@H]2[C@H](C(=O)O)[C@H]2[C@](N)(C(=O)O)[C@@H]1OCc1ccc(Cl)c(Cl)c1 |  | Active |  |  | 54.1 nM | > 94% | 34.5 nM | > 94% | Active |  | 
17 | N[C@]1(C(=O)O)[C@@H]2[C@@H](C(=O)O)[C@@H]2[C@@H](O)[C@H]1OCc1cccc(Cl)c1Cl |  | Active |  |  | 83.2 nM | > 94% |  |  |  |  | 
18 | N[C@H]1[C@H]2[C@H](C(=O)O)[C@H]2[C@](N)(C(=O)O)[C@@H]1OCc1ccc(Cl)c(Cl)c1 |  | Active |  |  | 1070 nM | > 94% | 1130 nM | > 94% | Active |  | 
19 | N[C@@]1(C(=O)O)[C@H](Cc2ccc(F)c(Cl)c2)C[C@H]2[C@H](C(=O)O)[C@H]21 (racemic) |  |  |  |  | 76.1 nM |  |  |  |  |  | 
